Reference: ChEMBL document CHEMBL1681651, “A broad spectrum anticancer nucleoside with selective toxicity against human colon cells in vitro” (2011)

Assays:
Assay type in all cases: functional
[1] = tested on: HCT-15; test: Growth inhibition of human HCT15 cells after 48 hrs by […] growth inhibition assay; conditions: HCT-15, 48 h
[2] = tested on: NCI/ADR-RES; test: Growth inhibition of human NCI/ADR-RES cells assessed as cell growth at 1 mM after 48 hrs by SRB assay; conditions: read-out: Activity
[3] = tested on: HL-60(TB); test: Growth inhibition of human HL-60(TB) cells assessed as cell growth at 1 mM after 48 hrs by SRB assay; conditions: HL-60, 48 h, read-out: Activity
[4] = tested on: SW-620; test: Growth inhibition of human SW620 cells assessed as cell growth at 0.1 uM after 48 hrs by SRB assay; conditions: SW-620, 48 h, read-out: Activity
[5] = tested on: SW-620; test: Growth inhibition of human SW620 cells after 48 hrs by […] growth inhibition assay; conditions: SW-620, 48 h
[6] = tested on: SK-MEL-28; test: Growth inhibition of human SK-MEL-28 cells assessed as cell growth at 0.1 uM after 48 hrs by SRB assay; conditions: SK-MEL-28, 48 h, read-out: Activity
[7] = tested on: SW-620; test: Growth inhibition of human SW620 cells assessed as cell growth at 1 uM after 48 hrs by SRB assay; conditions: SW-620, 48 h, read-out: Activity
[8] = tested on: K562; test: Growth inhibition of human K562 cells assessed as cell growth at 1 mM after 48 hrs by SRB assay; conditions: K562, 48 h, read-out: Activity
[9] = Growth inhibition of human Hs 578T cells assessed as cell growth at 1 uM after 48 hrs by SRB assay; conditions: read-out: Activity
[10] = tested on: HCC 2998; test: Growth inhibition of human HCC2998 cells assessed as cell growth at 100 uM after 48 hrs by SRB assay; conditions: HCC 2998, 48 h, read-out: Activity
[11] = tested on: SNB-19; test: Growth inhibition of human SNB19 cells assessed as cell growth at 10 uM after 48 hrs by SRB assay; conditions: SNB-19, 48 h, read-out: Activity
[12] = tested on: HL-60(TB); test: Growth inhibition of human HL-60(TB) cells after 48 hrs by […] growth inhibition assay; conditions: HL-60, 48 h
[13] = tested on: HL-60(TB); test: Growth inhibition of human HL-60(TB) cells assessed as cell growth at 100 uM after 48 hrs by SRB assay; conditions: HL-60, 48 h, read-out: Activity
[14] = tested on: SK-MEL-28; test: Growth inhibition of human SK-MEL-28 cells assessed as cell growth at 1 uM after 48 hrs by SRB assay; conditions: SK-MEL-28, 48 h, read-out: Activity
[15] = tested on: T47D; test: Growth inhibition of human T47D cells assessed as cell growth at 100 uM after 48 hrs by SRB assay; conditions: read-out: Activity
[16] = tested on: SR; test: Growth inhibition of human SR cells assessed as cell growth at 1 mM after 48 hrs by SRB assay; conditions: read-out: Activity
[17] = tested on: SK-MEL-28; test: Growth inhibition of human SK-MEL-28 cells assessed as cell growth at 1 mM after 48 hrs by SRB assay; conditions: SK-MEL-28, 48 h, read-out: Activity
[18] = tested on: SR; test: Growth inhibition of human SR cells assessed as cell growth at 100 uM after 48 hrs by SRB assay; conditions: read-out: Activity
[19] = tested on: SK-MEL-28; test: Growth inhibition of human SK-MEL-28 cells assessed as cell growth at 100 uM after 48 hrs by SRB assay; conditions: SK-MEL-28, 48 h, read-out: Activity
[20] = tested on: K562; test: Growth inhibition of human K562 cells assessed as cell growth at 100 uM after 48 hrs by SRB assay; conditions: K562, 48 h, read-out: Activity
[21] = Growth inhibition of human Hs 578T cells assessed as cell growth at 100 uM after 48 hrs by SRB assay; conditions: read-out: Activity
[22] = tested on: SW-620; test: Growth inhibition of human SW620 cells assessed as cell growth at 100 uM after 48 hrs by SRB assay; conditions: SW-620, 48 h, read-out: Activity
[23] = tested on: DU-145; test: Growth inhibition of human DU145 cells assessed as cell growth at 10 uM after 48 hrs by SRB assay; conditions: DU-145, 48 h, read-out: Activity
[24] = tested on: HOP-92; test: Growth inhibition of human HOP92 cells after 48 hrs by […] growth inhibition assay; conditions: HOP-92, 48 h
[25] = tested on: SR; test: Growth inhibition of human SR cells after 48 hrs by SRB assay
[26] = tested on: MDA-MB-231; test: Growth inhibition of human MDA-MB-231 cells assessed as cell growth at 0.1 uM after 48 hrs by SRB assay; conditions: MDA-MB-231, 48 h, read-out: Activity
[27] = tested on: K562; test: Growth inhibition of human K562 cells assessed as cell growth at 0.1 uM after 48 hrs by SRB assay; conditions: K562, 48 h, read-out: Activity
[28] = tested on: K562; test: Growth inhibition of human K562 cells assessed as cell growth at 1 uM after 48 hrs by SRB assay; conditions: K562, 48 h, read-out: Activity
[29] = tested on: SN12C; test: Growth inhibition of human SN12C cells assessed as cell growth at 1 mM after 48 hrs by SRB assay; conditions: read-out: Activity
[30] = tested on: TK-10; test: Growth inhibition of human TK10 cells assessed as cell growth at 0.1 uM after 48 hrs by SRB assay; conditions: TK-10, 48 h, read-out: Activity
[31] = tested on: K562; test: Growth inhibition of human K562 cells after 48 hrs by […] growth inhibition assay; conditions: K562, 48 h
[32] = read-out: LC50 (the source's name)
[33] = read-out: pLC50 (the source's name) (converted)

## CNC(=O)NC[C@H]1O[C@@H](n2cnc3c(NC(=O)Nc4ccccc4)ncnc32)[C@H](O[Si](C)(C)C(C)(C)C)[C@@H]1CC(=O)N(C)OC
[1]; read-out: GI50
  GI50: 6.47 µM
[1]; [32]
  CC50: > 100 µM
[1]; read-out: TGI
  TGI: > 100 µM
[1]; read-out: pGI50 (converted)
  GI50: 6.46 µM
[1]; [33]
  CC50: > 100 µM
[1]; read-out: pTGI
  TGI: > 100 µM
[2]
  growth at 1000 µM: 55%
[3]
  growth at 1000 µM: -58%
[4]
  growth at 0.1 µM: 99%
[5]; read-out: GI50
  GI50: > 100 µM
[5]; [32]
  CC50: > 100 µM
[5]; read-out: TGI
  TGI: > 100 µM
[5]; read-out: pGI50 (converted)
  GI50: > 100 µM
[5]; [33]
  CC50: > 100 µM
[5]; read-out: pTGI (converted)
  TGI: > 100 µM
[6]
  growth at 0.1 µM: 97%
[7]
  growth at 1 µM: 102%
[8]
  growth at 1000 µM: 24%
[9]
  growth at 1 µM: 98%
[10]
  growth at 100 µM: 66%
[11]
  growth at 10 µM: 83%
[12]; read-out: GI50
  GI50: 1.81 µM
[12]; [32]
  CC50: > 100 µM
[12]; read-out: TGI
  TGI: 4.34 µM
[12]; read-out: pGI50 (converted)
  GI50: 1.82 µM
[12]; [33]
  CC50: 16.2 µM
[12]; read-out: pTGI (converted)
  TGI: 4.37 µM
[13]
  growth at 100 µM: -48%
[14]
  growth at 1 µM: 106%
[15]
  growth at 100 µM: 56%
[16]
  growth at 1000 µM: -56%
[17]
  growth at 1000 µM: 27%
[18]
  growth at 100 µM: -53%
[19]
  growth at 100 µM: 44%
[20]
  growth at 100 µM: 17%
[21]
  growth at 100 µM: 40%
[22]
  growth at 100 µM: 65%
[23]
  growth at 10 µM: 104%
[24]; read-out: GI50
  GI50: 2.71 µM
[24]; [32]
  CC50: > 100 µM
[24]; read-out: TGI
  TGI: 24.3 µM
[24]; read-out: pGI50 (converted)
  GI50: 2.69 µM
[24]; [33]
  CC50: > 100 µM
[24]; read-out: pTGI (converted)
  TGI: 24 µM
[25]; read-out: GI50
  GI50: 1.27 µM
[25]; [32]
  CC50: 9.43 µM
[25]; read-out: TGI
  TGI: 3.46 µM
[25]; read-out: pGI50 (converted)
  GI50: 1.26 µM
[25]; [33]
  CC50: 9.33 µM
[25]; read-out: pTGI (converted)
  TGI: 3.47 µM
[26]
  growth at 0.1 µM: 97%
[27]
  growth at 0.1 µM: 95%
[28]
  growth at 1 µM: 95%
[29]
  growth at 1000 µM: 49%
[30]
  growth at 0.1 µM: 99%
[31]; read-out: GI50
  GI50: 3.12 µM
[31]; read-out: LC50
  LC50 (concentration killing 50% of cells): > 100 µM
[31]; read-out: TGI
  TGI: > 100 µM
[31]; read-out: pGI50 (converted)
  GI50: 3.09 µM
[31]; read-out: pLC50 (converted)
  LC50 (concentration killing 50% of cells): > 100 µM
[31]; read-out: pTGI (converted)
  TGI: > 100 µM
